Assay results from patent publication US20230060873A1, “COMPOUNDS AND METHODS FOR FORMING ION CHANNELS IN BIOLOGICAL MEMBRANES” (Washington University, priority 2021, published 2023).

System: B. subtilis membrane
Assay: DiSC3(5) depolarization assay, lariat ethers
Assay type: cell-based, Bacillus subtilis
Details: for DiSC3(5) release: 2 μM, cation-free dextrose solution
Method: Dialkylated lariat ethers LEC6-LEC14 were then tested for their ability to depolarize a B. subtilis membrane using the fluorescent dye 3,3-dipropylthiadicarbocyanine (DiSC3(5)), which undergoes membrane voltage-dependent partitioning between the intracellular and the extracellular medium. FIGS. 23-31 show the time course of the DiSC3(5) fluorescence due to the activity of dialkylated lariat ethers with alkyl chains 6 to 14 carbons in length. The experiment was performed in a NMDG-MeSO3 solution (100 mM NMDG, 10 mM HEPES, pH adjusted to 7.4 with methanesulfonic acid). The events are: t1, addition of dye; t2, addition of B. subtilis; t3, addition of a 2 M KCl or a 2 M NMDG-Cl solution up to a final concentration of 60 mM; t4, addition of dialkylated lariat ether up to 2 μM. Control experiments were performed that were similar to the two previously described experiments, with the exception that additional NMDG-MeSO3 solution without cells was added at timepoint t2. The experiments were normalized relative to the final fluorescence intensity in the control experiments, as described below.
To conduct the experiments shown in FIGS. 23-31, a 2-mL liquid culture of B. subtilis cells was grown at 37° C. in LB media until OD600=0.600, and then collected by centrifugation at 2000 rpm during 3 min. The bacteria were washed once in NMDG-MeSO3 solution (100 mM NMDG, 10 mM HEPES, pH adjusted to 7.4 with methanesulfonic acid) or dextrose solution (200 mM dextrose, 10 mM Tris, pH adjusted to 7.4 with HCl) depending on the experiment. The centrifugation step was repeated and the bacteria were resuspended until OD600=1.0 in the same solution. The working dye solution was a 200 μM solution of DiSC3(5) (3,3′-dipropylthiadicarbocyanine iodide; Tokyo Chemical Industry) in DMSO. […] After 150 sec (timepoint t3, 250 sec) the fluorescence stabilized to a minimum intensity and 100 μL of 2M NMDG-Cl, 2M NaCl or 2 M KCl solution was added to reach a about 60 mM final concentration of the salt. […] Fluorescence intensity was recorded each second using a Horiba Fluoromax 4 spectrometer (excitation wavelength=640 nm; emission wavelength=670 nm). […] To normalize the fluorescence, experiments in the same conditions but without adding bacteria were performed, normalization was done by dividing the fluorescence by the final fluorescence level of these experiments.
Cell hyperpolarization (more negatively charged inside the cell) results in an uptake of the dye, while cell membrane depolarization (more positively charged inside the cell) results in a release of the dye. The accumulation of the dye in the interior of the cell can be detected by a decrease in fluorescence due to self-quenching, which enables the dye to be utilized as an indirect reporter of changes in cell membrane voltage. […]

Structure (SMILES): CCCCCCCCCCN1CCOCCOCCN(CCCCCCCCCC)CCOCCOCC1 [LEC10, Didecyl diaza(18-crown-6)]
- relative DiSC3(5) release in the presence of different cations (2 μM compound, 60 mM KCl, NaCl or NMDG-Cl, NMDG-MeSO3 solution, 25° C): no significant differences
- DiSC3(5) release (60 mM KCl added): large DiSC3(5) release
- DiSC3(5) release (absence of any external cation): same effect was also observed
